# Measurements published in patent US20100076015A1, “Aminopyridine Derivatives” (VANTIA LIMITED, priority 2008, published 2010).
# Target: T1, Human KLK1 (Homo sapiens, UniProt P06870)
# T1 construct: purchased Callbiochem (Calbiochem)
# Assay: Determination of the IC50 for KLK1 (fluorogenic substrate H-DVal-Leu-Arg-AFC)
# Type: biochemical
# Conditions: 37° C.
# How it was run: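 Test compound at various concentrations was incubated with human KLK1 and the fluorogenic substrate H-DVal-Leu-Arg-AFC at 37° C. Absorbance change at 410 nm gave the initial reaction rate, from which IC50 was obtained.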
# T1 sequence (P06870 25-262): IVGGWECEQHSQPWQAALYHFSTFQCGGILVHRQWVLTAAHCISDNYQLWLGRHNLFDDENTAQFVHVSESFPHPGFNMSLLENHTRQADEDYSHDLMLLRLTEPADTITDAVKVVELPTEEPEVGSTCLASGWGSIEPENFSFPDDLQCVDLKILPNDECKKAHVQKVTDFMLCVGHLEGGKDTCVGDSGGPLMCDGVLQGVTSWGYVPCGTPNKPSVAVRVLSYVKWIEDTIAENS
row,Compound,IC50 [nM]
1,"CCC(C)[C@H](C(=O)N[C@@H](Cc1ccc(F)c(F)c1)C(=O)NCc1ccc(N)nc1)N(C)C (stereo partly drawn) [Example 358, (R)-2-Dimethylamino-3-methyl-pentanoic acid [(S)-1-[(6-amino-pyridin-3-ylmethyl)-carbamoyl]-2-(3,4-difluoro-phenyl)-ethyl]-amide]",10.4
2,"CC(C)N(C)[C@@H](CO)C(=O)N[C@@H](Cc1ccc(F)c(F)c1)C(=O)NCc1ccc(N)nc1 [Example 360, (S)—N-[(S)-1-[(6-Amino-pyridin-3-ylmethyl)-carbamoyl]-2-(3,4-difluoro-phenyl)-ethyl]-3-hydroxy-2-(isopropyl-methyl-amino)-propionamide]",20.2
3,"CCN(CC)[C@@H](CO)C(=O)N[C@@H](Cc1ccc(F)c(F)c1)C(=O)NCc1ccc(N)nc1 [Example 362, (S)—N-[(S)-1-[(6-Amino-pyridin-3-ylmethyl)-carbamoyl]-2-(3,4-difluoro-phenyl)-ethyl]-2-diethylamino-3-hydroxy-propionamide]",25.9
4,"CCN(CC)[C@H](CO)C(=O)N[C@@H](Cc1ccc(F)c(F)c1)C(=O)NCc1ccc(N)nc1 [Example 363, (R)—N-[(S)-1-[(6-Amino-pyridin-3-ylmethyl)-carbamoyl]-2-(3,4-difluoro-phenyl)-ethyl]-2-diethylamino-3-hydroxy-propionamide]",84.4
5,"CCN(CC)[C@@H](CC(=O)OC)C(=O)N[C@@H](Cc1ccc(F)c(F)c1)C(=O)NCc1ccc(N)nc1 [Example 364, (S)—N-[(S)-1-[(6-Amino-pyridin-3-ylmethyl)-carbamoyl]-2-(3,4-difluoro-phenyl)-ethyl]-3-diethylamino-succinamic acid methyl ester]",43.7
6,"CCCN(C)[C@@H](C)C(=O)N[C@@H](Cc1ccc(F)cc1)C(=O)NCc1ccc(N)nc1 [Example 368, (S)—N-[(S)-1-[(6-Amino-pyridin-3-ylmethyl)-carbamoyl]-2-(4-fluoro-phenyl)-ethyl]-2-(methyl-propyl-amino)-propionamide]",19.4
7,"CC(C)[C@@H](C(=O)N[C@@H](Cc1ccc(F)cc1)C(=O)NCc1ccc(N)nc1)N(C)C(C)C [Example 370, (S)—N-[(S)-1-[(6-Amino-pyridin-3-ylmethyl)-carbamoyl]-2-(4-fluoro-phenyl)-ethyl]-2-(isopropyl-methyl-amino)-3-methyl-butyramide]",11.3
8,"CCC(C)[C@@H](C(=O)N[C@@H](Cc1ccc(F)cc1)C(=O)NCc1ccc(N)nc1)N(C)C(C)C (stereo partly drawn) [Example 371, (S)-2-(Isopropyl-methyl-amino)-3-methyl-pentanoic acid [(S)-1-[(6-amino-pyridin-3-ylmethyl)-carbamoyl]-2-(4-fluoro-phenyl)-ethyl]-amide]",7.3
9,"CC(C)N(C(C)C)[C@@H](C)C(=O)N[C@@H](Cc1ccc(F)cc1)C(=O)NCc1ccc(N)nc1 [Example 372, (S)—N-[(S)-1-[(6-Amino-pyridin-3-ylmethyl)-carbamoyl]-2-(4-fluoro-phenyl)-ethyl]-2-diisopropylamino-propionamide]",34.3
10,"CC(C)N(C)[C@@H](Cc1ccccc1)C(=O)N[C@@H](Cc1ccc(F)cc1)C(=O)NCc1ccc(N)nc1 [Example 373, (S)—N-[(S)-1-[(6-Amino-pyridin-3-ylmethyl)-carbamoyl]-2-(4-fluoro-phenyl)-ethyl]-2-(isopropyl-methyl-amino)-3-phenyl-propionamide]",25.7
11,"C[C@@H](C(=O)N[C@@H](Cc1ccc(F)cc1)C(=O)NCc1ccc(N)nc1)N1CCCCC1 [Example 375, (S)—N-[(S)-1-[(6-Amino-pyridin-3-ylmethyl)-carbamoyl]-2-(4-fluoro-phenyl)-ethyl]-2-piperidin-1-yl-propionamide]",4.9
12,"CCC(C)[C@H](C(=O)N[C@@H](Cc1cccc(F)c1)C(=O)NCc1ccc(N)nc1)N(C)C (stereo partly drawn) [Example 377, (R)-2-Dimethylamino-3-methyl-pentanoic acid [(S)-1-[(6-amino-pyridin-3-ylmethyl)-carbamoyl]-2-(3-fluoro-phenyl)-ethyl]-amide]",32.2
13,"Nc1ccc(CNC(=O)[C@H](Cc2ccc(F)cc2)NC(=O)CN2CCCCC2)cn1 [Example 379, (S)—N-(6-Amino-pyridin-3-ylmethyl)-3-(4-fluoro-phenyl)-2-(2-piperidin-1-yl-acetylamino)-propionamide]",128
14,"CN(C)[C@@H](CO)C(=O)N[C@@H](CC1CCCCC1)C(=O)NCc1ccc(N)nc1 [Example 386, (S)—N-{(S)-1-[(6-Amino-pyridin-3-ylmethyl)-carbamoyl]-2-cyclohexyl-ethyl}-2-dimethylamino-3-hydroxy-propionamide]",260
15,"CCN(C)[C@@H](CO)C(=O)N[C@@H](CC1CCCCC1)C(=O)NCc1ccc(N)nc1 [Example 387, (S)—N-{(S)-1-[(6-Amino-pyridin-3-ylmethyl)-carbamoyl]-2-cyclohexyl-ethyl}-2-(ethyl-methyl-amino)-3-hydroxy-propionamide]",170
16,"CC(C)N(C)[C@@H](CO)C(=O)N[C@@H](CC1CCCCC1)C(=O)NCc1ccc(N)nc1 [Example 388, (S)—N-{(S)-1-[(6-Amino-pyridin-3-ylmethyl)-carbamoyl]-2-cyclohexyl-ethyl}-3-hydroxy-2-(isopropyl-methyl-amino)-propionamide]",22.2

# The remaining compounds from weak to strong by IC50, led by results:
row,IC50 [nM],Compound
1,107,"CCCN(CCC)[C@@H](C)C(=O)N[C@@H](CC1CCCCC1)C(=O)NCc1ccc(N)nc1 [Example 385, (S)—N-{(S)-1-[(6-Amino-pyridin-3-ylmethyl)-carbamoyl]-2-cyclohexyl-ethyl}-2-dipropylaminopropionamide]"
2,55.6,"CCN(C)[C@@H](CO)C(=O)N[C@@H](Cc1ccc(F)c(F)c1)C(=O)NCc1ccc(N)nc1 [Example 361, (S)—N-[(S)-1-[(6-Amino-pyridin-3-ylmethyl)-carbamoyl]-2-(3,4-difluoro-phenyl)-ethyl]-2-(ethyl-methyl-amino)-3-hydroxy-propionamide]"
3,54.5,"Nc1ccc(CNC(=O)[C@H](Cc2ccc(F)c(F)c2)NC(=O)CN2CCCC2)cn1 [Example 366, (S)—N-(6-Amino-pyridin-3-ylmethyl)-3-(3,4-difluoro-phenyl)-2-(2-pyrrolidin-1-yl-acetylamino)-propionamide]"
4,52.7,"C[C@H](C(=O)N[C@@H](Cc1ccc(F)cc1)C(=O)NCc1ccc(N)nc1)N1CCCCC1 [Example 374, (R)—N-[(S)-1-[(6-Amino-pyridin-3-ylmethyl)-carbamoyl]-2-(4-fluoro-phenyl)-ethyl]-2-piperidin-1-yl-propionamide]"
5,49.4,"C[C@@H](C(=O)N[C@@H](CC1CCCCC1)C(=O)NCc1ccc(N)nc1)N(C)C [Example 391, (S)—N-{(S)-1-[(6-Amino-pyridin-3-ylmethyl)-carbamoyl]-2-cyclohexyl-ethyl}-2-dimethylamino-propionamide]"
6,48.6,"CN1CCC[C@H]1C(=O)N[C@@H](CC1CCCCC1)C(=O)NCc1ccc(N)nc1 [Example 382, (S)-1-Methyl-pyrrolidine-2-carboxylic acid {(S)-1-[(6-amino-pyridin-3-ylmethyl)-carbamoyl]-2-cyclohexyl-ethyl}-amide]"
7,47.2,"CC1CCCC(C)N1CC(=O)N[C@@H](CC1CCCCC1)C(=O)NCc1ccc(N)nc1 (stereo partly drawn) [Example 392, (S)—N-(6-Amino-pyridin-3-ylmethyl)-3-cyclohexyl-2-[2-(2,6-dimethyl-piperidin-1-yl)-acetylamino]-propionamide]"
8,45.9,"CCCN(C)[C@@H](C)C(=O)N[C@@H](CC1CCCCC1)C(=O)NCc1ccc(N)nc1 [Example 383, (S)—N-{(S)-1-[(6-Amino-pyridin-3-ylmethyl)-carbamoyl]-2-cyclohexyl-ethyl}-2-(methyl-propyl-amino)-propionamide]"
9,42.9,"CCN(CC)[C@@H](CO)C(=O)N[C@@H](CC1CCCCC1)C(=O)NCc1ccc(N)nc1 [Example 389, (S)—N-{(S)-1-[(6-Amino-pyridin-3-ylmethyl)-carbamoyl]-2-cyclohexyl-ethyl}-2-diethylamino-3-hydroxy-propionamide]"
10,29.1,"CCCCN(C)[C@@H](C)C(=O)N[C@@H](Cc1ccc(F)cc1)C(=O)NCc1ccc(N)nc1 [Example 369, (S)—N-[(S)-1-[(6-Amino-pyridin-3-ylmethyl)-carbamoyl]-2-(4-fluoro-phenyl)-ethyl]-2-(butyl-methyl-amino)-propionamide]"
11,13.9,"CCN(CC)CC(=O)N[C@@H](Cc1ccc(F)cc1)C(=O)NCc1ccc(N)nc1 [Example 380, (S)—N-(6-Amino-pyridin-3-ylmethyl)-2-(2-diethylamino-acetylamino)-3-(4-fluoro-phenyl)-propionamide]"
12,10.8,"CCN(C)[C@@H](C)C(=O)N[C@@H](Cc1ccc(F)cc1)C(=O)NCc1ccc(N)nc1 [Example 367, (S)—N-[(S)-1-[(6-Amino-pyridin-3-ylmethyl)-carbamoyl]-2-(4-fluoro-phenyl)-ethyl]-2-(ethyl-methyl-amino)-propionamide]"
13,9.7,"CCN(C)[C@@H](C)C(=O)N[C@@H](CC1CCCCC1)C(=O)NCc1ccc(N)nc1 [Example 384, (S)—N-{(S)-1-[(6-Amino-pyridin-3-ylmethyl)-carbamoyl]-2-cyclohexyl-ethyl}-2-(ethyl-methyl-amino)-propionamide]"
14,5,"CC(C)[C@H](C(=O)N[C@@H](Cc1ccc(F)c(F)c1)C(=O)NCc1ccc(N)nc1)N(C)C [Example 359, (R)—N-[(S)-1-[(6-Amino-pyridin-3-ylmethyl)-carbamoyl]-2-(3,4-difluoro-phenyl)-ethyl]-2-dimethylamino-3-methyl-butyramide]"
15,2.7,"CCN(CC)[C@@H](C)C(=O)N[C@@H](Cc1ccc(F)cc1)C(=O)NCc1ccc(N)nc1 [Example 376, (S)—N-[(S)-1-[(6-Amino-pyridin-3-ylmethyl)-carbamoyl]-2-(4-fluoro-phenyl)-ethyl]-2-diethylamino-propionamide]"
16,2.5,"CC1CCCC(C)N1CC(=O)N[C@@H](Cc1ccc(F)cc1)C(=O)NCc1ccc(N)nc1 (stereo partly drawn) [Example 378, (S)—N-(6-Amino-pyridin-3-ylmethyl)-2-[2-(2,6-dimethyl-piperidin-1-yl)-acetylamino]-3-(4-fluoro-phenyl)-propionamide]"
